From patent US5393755A, “Polycyclic guanine derivatives” (priority 1992, dated 1995)

How the values were obtained:
[1] = target: cGMP phosphodiesterase (cGMP-PDE) (Bos taurus, UniProt Q28156); assay: biochemical; parameters: species or system bovine (lung); conditions: 1 μM 3H-cGMP substrate, pH 7.5, 25 minutes, room temperature
Method: (§1) Compounds are evaluated for inhibition of two phosphodiesterase enzymes which hydrolyze cyclic guanosine monophosphate (cGMP). The first enzyme, calcium-calmodulin dependent phosphodiesterase (CaM-PDE), is a partially pure enzyme obtained from bovine aorta homogenates and purified by DEAE-cellulose and calmodulin-affinity chromatography. The enzyme is activated several fold by Ca-calmodulin and is selective for cGMP, although it will also hydrolyze cAMP. […] Bovine aorta homogenates and primary cultures of bovine aortic endothelial and vascular smooth muscle cells contain an enzyme with properties very similar to the lung isozyme.
(§2) The enzyme assay is performed using a Biomek Automated Pipetting Station. Compounds are dissolved in distilled water or DMSO and diluted with 10% DMSO.
(§3) Assays contain the following components:
(§4) 50 mM Tris-HCl, pH 7.5, 5 mM magnesium chloride
(§5) 0.5 mg/ml snake venom alkaline phosphatase
(§6) Assays are initiated by addition of enzyme and stopped by addition of 10 mM isobutylmethylxanthine, a general phosphodiesterase inhibitor. Assays are performed for 25 minutes at room temperature to achieve 5-10% hydrolysis of substrate. The negatively charged substrates are then separated from guanosine by binding to an anion-exchange resin (AG1-X8) and centrifugation or filtration, and the product is quantitated by scintillation counting in counts per minute (cpm) of the remaining soluble material. Percent inhibition is calculated as follows:
(§7) % Inhibition=100-[(cpm compound-blank)/(cpm control-blank)×100]
(§8) Activity is expresssed as the IC50 value, i.e. the concentration required to inhibit activity of enzyme by 50 per cent.

[2] = system: spontaneously hypertensive rats (SHR); assay: Antihypertensive Activity in Rats (conscious SHR, oral); format: in vivo, rat (spontaneously hypertensive; conditions: fasted SHR males
From the text: The present compounds are useful in inhibiting the phosphodiesterase enzymes. These phosphodiesterase enzymes are known to hydrolyze cGMP in smooth muscle. High levels of cGMP are associated with the relaxation of vascular smooth muscle, with a consequent subsequent reduction in blood pressure. Thus, it is believed that by inhibiting these phosphodiesterase enzymes, cGMP levels in muscle will be either maintained or increased with a subsequent reduction in blood pressure. In vivo antihypertensive activity is determined orally in spontaneously hypertensive rats (SHR). The ability of the compounds of the present invention to lower blood pressure can be assessed in vivo in conscious spontaneously hypertensive rats (SHR). SHR males are purchased from Taconic Farms, Germantown, N.Y. and are approximately 16-18 weeks old when anesthetized with ether. The caudal (ventral tail) artery is cannulated with polyethylene tubing (PE50) and blood pressure and heart rate are recorded as described by Baum, T. et. al, J. Cardiovasc. Pharmacol. Vol 5, pp. 655-667, (1983). Rats are placed into plastic cylindrical cages where they rapidly recover consciousness. Blood pressure and heart rate are allowed to stabilize for approximately 90 minutes prior to compound administration. Compounds are administered orally as solutions or suspensions in 0.4% aqueous methylcellulose vehicle via a feeding needle. […] Activity is expressed as the fall in mean blood pressure (MBP) in millimeters of mercury (mm Hg). Compound-induced changes are compared with the changes in an appropriate placebo group.

[3] = target: T1, calcium-calmodulin dependent phosphodiesterase (CaM-PDE) (Bos taurus, UniProt P14100); assay: Phosphodiesterase Inhibition In Vitro: CaM-PDE; format: biochemical, bovine (aorta); conditions: 1 μM 3H-cGMP substrate, pH 7.5, 25 minutes, room temperature, with calmodulin and CaCl2
T1 construct: partially pure enzyme obtained from bovine aorta homogenates; from tissue; host or cells: bovine aorta homogenates
Method: as §1, §2, §3, §4, §5
0.1 μM Calmodulin and 1 mM CaCl2 (for CaM-PDE only)
as §6, §7, §8

| SMILES | IC50 [1] | SHR Antihypertensive Fall in MBP ([2]; Dose 25 mpk) | IC50 [3] | SHR Antihypertensive Fall in MBP ([2]; Dose 5 mpk) | SHR Antihypertensive Fall in MBP ([2]; Dose 10 mpk) |
| --- | --- | --- | --- | --- | --- |
| CN1C(=O)c2c(ncn2Cc2ccccc2)N2C1=N[C@@H]1CCC[C@@H]12 (relative stereo) [Example 1, cis-5,6a,7,8,9,9a-Hexahydro-5-methyl-3-(phenylmethyl)cyclopent[4,5]imidazo[2,1-b]purin-4-one] | 400 nM | 30 mmHg | 300 nM | – | – |
| CN1C(=O)c2c(ncn2Cc2ccccc2)N2C1=N[C@@H]1CCCC[C@@H]12 (relative stereo) [Example 3, cis-6a,7,8,9,10,10a-Hexahydro-5-methyl-3-(phenylmethyl)-3H-benzimidazo[2,1-b]purin-4(5H)-one] | 1400 nM | 22 mmHg | 100 nM | – | – |
| Cc1nc2c(n1Cc1ccccc1)C(=O)N(C)C1=N[C@@H]3CCC[C@@H]3N12 (relative stereo) [Example 9, cis-5,6a,7,8,9,9a-Hexahydro-2,5-dimethyl-3-(phenylmethyl)cyclopent[4,5]imidazo[2,1-b]purin-4-(3H)-one] | – | 36 mmHg | 600 nM | – | – |
| Cc1nc2c(n1Cc1ccccc1)C(=O)N(C)C1=N[C@@H]3CCCC[C@@H]3N12 (relative stereo) [Example 12, cis-6a,7,8,9,10,10a-Hexahydro-2,5-dimethyl-3-(phenylmethyl)-3H-benzimidazo[2,1-b]purin-4(5H)-one] | 200 nM | 38 mmHg | 200 nM | – | – |
| Cc1nc2c(n1Cc1ccccc1)C(=O)N(C)C1=N[C@@H]3CCCCC[C@@H]3N12 (relative stereo) [Example 14, cis-5,6a,7,8,9,9a-Hexahydro-2,5-dimethyl-3-(phenylmethyl)cyclohept[6,7]imidazo[2,1-b]purin-4(3H)-one] | 900 nM | 20 mmHg | 300 nM | – | – |
| CCc1nc2c(n1Cc1ccccc1)C(=O)N(C)C1=N[C@@H]3CCCC[C@@H]3N12 (relative stereo) [Example 16, cis-6a,7,8,9,10,10a-Hexahydro-5-methyl-2-ethyl-3-(phenylmethyl)-3H-benzimidazo[2,1-b]purin-4(5H)-one] | 3000 nM | 23 mmHg | 100 nM | – | – |
| CN1C(=S)c2c(ncn2Cc2ccccc2)N2C1=N[C@@H]1CCC[C@@H]12 (relative stereo) [Example 20, cis-5,6a,7,8,9,9a-Hexahydro-5-methyl-3-(phenylmethyl)cyclopenta[4,5]imidazo[2,1-b]purin-4(3H)-thione] | 400 nM | 6 mmHg | 40 nM | – | – |
| CN1C(=O)c2c(ncn2Cc2ccc(Cl)cc2)N2C1=N[C@@H]1CCC[C@@H]12 (relative stereo) [Example 21, cis-5,6a,7,8,9,9a-Hexahydro-5-methyl-3-(4-chlorophenylmethyl)cyclopenta[4,5]imidazo[2,1-b]purin-4(3H)-one] | 400 nM | 20 mmHg | 3300 nM | – | – |
| CN1C(=O)c2c(ncn2CC2CCCCC2)N2C1=N[C@@H]1CCC[C@@H]12 (relative stereo) [Example 22, cis-5,6a,7,8,9,9a-Hexahydro-5-methyl-3-(cyclohexylmethyl)cyclopent[4,5]imidazo[2,1-b]purin-4(3H)-one] | 200 nM | 15 mmHg | 200 nM | – | – |
| COC(=O)c1nc2c(n1Cc1ccccc1)C(=O)N(C)C1=N[C@@H]3CCC[C@@H]3N12 (relative stereo) [Example 28, cis-3,4,5,6a,7,8,9,9a-Octahydro-5-methyl-4-oxo-3-(phenylmethyl)cyclopent[4,5]imidazo[2,1-b]purin-2-carboxylic acid, methyl ester] | 200 nM | 19 mmHg | 200 nM | – | – |
| Cc1nc2c(n1Cc1ccccc1)C(=O)N(C)C1=NC34CCCC3CCC4N12 (single isomer, unassigned; (+)) [Example 39, (+) 6a,7,8,9,9a,10,11,11a-Octahydro-2,5-dimethyl-3-phenylmethyl-3H-pentaleno[6a',1':4,5]imidazo[2,1-b]purin-4(5H)-one] | 100 nM | 40 mmHg | 100 nM | – | – |
| Cc1nc2c([nH]1)C(=O)N(C)C1=NC34CCCC3CCC4N12.Cl (single isomer, unassigned; (+)) [Example 41a, (+)-6a,7,8,9,9a,10,11,11a-Octahydro-2,5-dimethyl-3H-pentaleno[6a',1':4,5]imidazo[2,1-b]purin-4(5H)-one, hydrochloride] | 100 nM | 67 mmHg | 200 nM | 45 mmHg | 52 mmHg |
| Cc1nc2c(n1Cc1ccccc1)C(=O)N(C)C1=N[C@@H]3CCC[C@@H]3N12 [Example 10, 5,6a(R),7,8,9,9a(S)-Hexahydro-2,5-dimethyl-3-(phenylmethyl)cyclopent[4,5]imidazo[2,1-b]purin-4(3H)-one] | – | 45 mmHg | 300 nM | – | – |
| Cc1nc2c([nH]1)C(=O)N(C)C1=N[C@@H]3CCC[C@@H]3N12 [Example 19a, cis-5,6a(R),7,8,9,9a(S)-Hexahydro-2,5-di-methylcyclopent[4,5]imidazo[2,1-b]purin-4(3H)-one] | 300 nM | 40 mmHg | 3000 nM | – | – |
| CN1C(=O)c2c(ncn2Cc2ccccc2)N2CC3(CCCC3)N=C12 [Example 34, 5'-Methyl-3'-(phenylmethyl)-spiro[cyclopentane-1,7'(8'H)-(3'H)-imidazo[2,1-b]purin]-4'(5'H)one] | 100 nM | 40 mmHg | 100 nM | – | – |
| Cc1nc2c(n1Cc1ccccc1)C(=O)N(C)C1=NC3(CCCC3)CN12 [Example 34a, 2',5'-Dimethyl-3'-(phenylmethyl)spiro[cyclopentane-1,7'(8'H)-(3'H)-imidazo[2,1-b]purin]-4'(5'H)one] | 800 nM | 58 mmHg | 300 nM | – | – |
| CN1C(=O)c2c(ncn2Cc2ccccc2)N2C1=N[C@@H]1CCC[C@@H]12 [Example 35, cis-5,6a(R),7,8,9,9a(S)-Hexahydro-5-methyl-3-(phenylmethyl)cyclopent[4,5]imidazo[2,1-b]purin-4(3H)one] | 300 nM | 41 mmHg | 400 nM | – | – |
